Measured values: ChEMBL document CHEMBL1127863, “New nonpeptide angiostensin II receptor antagonists. Synthesis, biological properties and structure-activity relationships of 3-substituted 2,6-dialkyl-4-(biphenyll)methylaminopyridine derivatives” (Bioorg Med Chem Lett, 1994)

What was measured:
Rattus norvegicus = assay: Effective dose following intravenous administration to conscious rats for inhibition of AII-induced pressor response; type: functional
[1] = target: Angiotensin II receptor (Cavia porcellus); assay: Inhibition of [125I]AII binding to guinea pig adrenal membrane

Compound | IC50 [1] [nM] | ED50 (Rattus norvegicus) [mg/kg]
CCc1cc(OCc2ccc(-c3ccccc3-c3nn[nH]n3)cc2)c2ccccc2n1 | – | 1
COC(=O)c1c(NCc2ccc(-c3ccccc3-c3nn[nH]n3)cc2)cc(C)nc1C | 8.03 | –
Cc1cc(NCc2ccc(-c3ccccc3-c3nn[nH]n3)cc2)c(I)c(C)n1 | 3.48 | 0.05
Cc1cc(NCc2ccc(-c3ccccc3-c3nn[nH]n3)cc2)c(Cl)c(C)n1 | 6.65 | 0.03
CCc1cc(OCc2ccc(-c3ccccc3-c3nn[nH]n3)cc2)c2c(n1)CCCC2 | – | 0.39
CCCCc1nc(Cl)c(CO)n1Cc1ccc(-c2ccccc2-c2nnn[nH]2)cc1 [LOSARTAN] | – | 0.65

Further lines, with some results ahead:

IC50 [1] [nM] | Compound | ED50 (Rattus norvegicus) [mg/kg]
14 | CCc1cc(OCc2ccc(-c3ccccc3-c3nn[nH]n3)cc2)c(I)c(CC)n1 | 0.44
26.4 | CCc1cc(NCc2ccc(-c3ccccc3-c3nn[nH]n3)cc2)c(-c2ccc(C(F)(F)F)cc2)c(CC)n1 | –
7.58 | CCc1cc(NCc2ccc(-c3ccccc3-c3nn[nH]n3)cc2)c(Cl)c(CC)n1 | 0.06
3.83 | CCc1cc(NCc2ccc(-c3ccccc3-c3nn[nH]n3)cc2)c(Br)c(CC)n1 | 0.09
6.21 | CCc1cc(NCc2ccc(-c3ccccc3-c3nn[nH]n3)cc2)c(C(=O)OC)c(CC)n1 | –
24.9 | CCc1cc(NCc2ccc(-c3ccccc3-c3nn[nH]n3)cc2)c(-c2ccc(C)cc2)c(CC)n1 | –
2.64 | CCc1cc(NCc2ccc(-c3ccccc3-c3nn[nH]n3)cc2)c(I)c(CC)n1 | 0.13
